PMC13249053, “Mechanism of auranofin toxicity: Inhibition of tetrahydrobiopterin metabolism” (Toxicology and applied pharmacology, 2025)
Several values for one entry are separate records, joined by “and”; a condition that tells them apart may be missing. Identical values can stand only once.

Columns and labels:
SPR [1] = target: T1, SPR (Homo sapiens, UniProt P35270); experiment: BH2 and BH4 production from sepiapterin in intact HaCaT cells (HPLC); type: cell-based; set-up: endogenous in cells; host or cells: HaCaT, Jurkat, BeWo, SKNMC, CX-1; details: auranofin 2 h, then 100 μM sepiapterin 3 h, read-out: IC50, inhibition of SPR (BH2+BH4 formation) in intact HaCaT cells
T1 sequence (P35270 whole entry): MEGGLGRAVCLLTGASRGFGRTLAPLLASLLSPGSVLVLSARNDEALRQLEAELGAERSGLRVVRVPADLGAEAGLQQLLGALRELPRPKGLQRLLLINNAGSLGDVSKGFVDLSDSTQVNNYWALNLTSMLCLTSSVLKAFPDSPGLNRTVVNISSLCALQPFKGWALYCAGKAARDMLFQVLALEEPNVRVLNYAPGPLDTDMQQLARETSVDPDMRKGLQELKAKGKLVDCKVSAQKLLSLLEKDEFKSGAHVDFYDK
Experimental: The growth medium was then removed and the cells incubated with growth medium containing 100 μM sepiapterin. […] BH2 and BH4 were then analyzed on a Jasco high-performance liquid chromatography system (Easton, MD) fitted with a Maxsil-10 C18 column (250 × 4 mm; Phenomenex, Torrance, CA). […] Cell viability following drug treatments was greater than 95 %.
Fig. 3. Effects of auranofin on BH2 and BH4 production in intact HaCaT cells treated with sepiapterin. HaCaT cells (~1 × 10^6 cells/well in 6 well culture plates) were incubated with control medium or medium containing increasing concentrations of auranofin for 2 h followed by 100 μM sepiapterin. After an additional 3 h, BH2 and BH4 were extracted from the cells and analyzed by HPLC with fluorescence detection. Left panel: Chromatograms showing BH2 and BH4 content of control cells and cells treated with Auranofin.

SPR [2] = target: T1, SPR; experiment: Cellular SPR activity: BH2 formation from sepiapterin in the presence of methotrexate, human cell lines; type: cell-based; set-up: endogenous in cells; host or cells: HaCaT, Jurkat, BeWo, SKNMC, CX-1
SPR [3] = target: T1, SPR; experiment: Sepiapterin reduction by recombinant SPR (absorbance at 420 nm); type: biochemical; set-up: made in house
Experimental: Sepiapterin reductase activity was assayed by measuring decreases in sepiapterin absorbance at 420 nm as described by Kato ([Kato, 1971]) with some modifications. Briefly, standard reaction mixes contained 100 mM potassium phosphate buffer, pH 7.0, 100 μM NADPH, 50 μM sepiapterin and 1 μg of enzyme protein in a final volume of 0.2 ml. Changes in absorbance of sepiapterin were monitored using a Spectramax M5 microplate reader (Molecular Devices, Sunnyvale, CA). […] Chemical redox cycling by SPR was assayed by measuring the formation of superoxide anion in the presence of menadione as previously described ([Yang et al., 2013]). […] Superoxide anion was measured spectrophotometrically by the reduction of acetylated cytochrome c at 550 nm. DHFR activity was measured as previously described ([Whitsett et al., 2013]) with some modifications. […] Enzyme activity was monitored by decreases in absorbance of NADPH at 340 nm using a microplate reader. […]
Fig. 5. […] SPR was measured in enzyme assays by decreases in sepiapterin absorbance at 420 nm as described in the Materials and Methods. DHFR activity in enzyme assays was measured by decreases in absorbance of NADPH at 340 nm. […] Redox cycling was measured spectrophotometrically by the reduction of acetylated cytochrome c at 550 nm during the formation of superoxide anion in enzyme assays in the presence of 100 μM menadione.

SMILES: CC[PH](CC)(CC)[Au][S][C@@H]1O[C@H](COC(C)=O)[C@@H](OC(C)=O)[C@H](OC(C)=O)[C@H]1OC(C)=O [auranofin, 2,3,4,6-tetra-O-acetyl-1-thio-β-D-glucopyranosato-S-triethyl phosphine gold]
- IC50 (SPR [1]): 12.8 µM
- IC50 (SPR [2]; BeWo (human choriocarcinoma), with methotrexate, read-out: SPR IC50, BeWo cells): 8.9 ± 0.64 µM
- IC50 (SPR [2]; CX-1 (human colon adenocarcinoma), with methotrexate, read-out: SPR IC50, CX-1 cells): 25.1 ± 1.03 µM
- IC50 (SPR [2]; HaCaT (human keratinocytes), with MTX 1 μM, auranofin 2 h, then 200 μM sepiapterin 3 h, listed as Auranofin, read-out: SPR IC50, HaCaT cells): 10.7 µM
- IC50 (SPR [2]; HaCaT (human keratinocytes), with MTX 1 μM, auranofin 2 h, then 200 μM sepiapterin 3 h, read-out: SPR IC50, HaCaT cells): 10.7 ± 0.9 µM
- time of pretreatment to maximum inhibition of cellular SPR (SPR [2]; HaCaT cells with methotrexate, 20 μM auranofin): 2 h
- IC50 (SPR [2]; Jurkat (human leukemia), with methotrexate, read-out: SPR IC50, Jurkat cells): 7.2 ± 0.17 µM
- IC50 (SPR [2]; SKNMC (human neuroblastoma), with methotrexate, read-out: SPR IC50, SKNMC cells): 17.7 ± 1.54 µM
- recombinant SPR activity versus control (SPR [3]; 10 μM auranofin, n = 3, P < 0.05): Significantly different
- IC50 (SPR [3]; 50 μM sepiapterin, 100 μM NADPH, pH 7.0, auranofin added 10 min before, read-out: IC50, inhibition of sepiapterin reduction by recombinant SPR): 1.5 µM and 1.53 µM
